Laboratory results taken from patent US9249102B2 (priority 2012, dated 2016).
Where two headings read alike, the source gives them in different places.

Assays:
Haemonchus contortus [1] = test: Method A: Haemonchus contortus L1 larvae, microtitre plate screen; conditions: 96 h, read-out: motility inhibition
Cooperia oncophora = test: Method C: Cooperia oncophora L1 larvae in vitro; conditions: 96 h, read-out: inhibition of motility
Haemonchus contortus [2] = test: Method D: Haemonchus contortus in vivo in Mongolian jirds; set-up: species or system Mongolian jirds (Meriones unguiculatus); conditions: po, 72 h, read-out: reduction in nematode infestation
[3] = test system: microfilaria of Dirofilaria immitis; test: Method F: microfilaria of Dirofilaria immitis, survival at 24 hours
[4] = Method G: permeability in the Caco-2/TC7 in vitro model; conditions: human, Caco-2, pH 6.5
[5] = survival of microfilaria at 24 hours

SMILES	inhibition at 5 µg/mL (Haemonchus contortus [1])	inhibition at 5 µg/mL (Cooperia oncophora)	inhibition in vivo at 30 mg/kg (Haemonchus contortus [2])	EC50 [3, 5]	EC50 [3]	Papp A→B at 20 μM [4]
N#Cc1ccc(N[C@H]2CC[C@H](OCC(=O)N3CCN(c4ccc5cc(Cl)ccc5n4)CC3)CC2)cc1C(F)(F)F [Compound 272, 2-[(4-[[4-cyano-3-(trifluoromethyl)phenyl]amino]cyclohexyl)oxy]-1-[4-(6-chloroquinolin-2-yl)piperazin-1-yl]ethan-1-one]	≥ 90%	≥ 90%	70 to 90%	< 1 µg/mL		
CN(c1ccc(C#N)c(C(F)(F)F)c1)[C@H]1CC[C@H](OCC(=O)N2CCN(c3ccc4cc(C(F)(F)F)ccc4n3)CC2)CC1 [Compound 283, 2-[(4-[methyl[4-cyano-3-(trifluoromethyl)phenyl]amino]cyclohexyl)-oxy]1-[4-[6-(trifluoromethyl)quinolin-2-yl]-piperazin-1-yl]ethan-1-one]	≥ 90%	≥ 90%	> 90%			
O=C(CO[C@H]1CC[C@H](Nc2ccc([N+](=O)[O-])c(C(F)(F)F)c2)CC1)N1CCN(CC2Cc3cc(C(F)(F)F)ccc3O2)CC1 (stereo partly drawn) [Compound 78, 2-[(4-[[4-nitro-3-(trifluoromethyl)phenyl]amino]cyclohexyl)oxy]-1-(4-[[5-(trifluoromethyl)-2,3-dihydro-1-benzofuran-2-yl]methyl]piperazin-1-yl)ethan-1-one]	≥ 90%	≥ 90%	> 90%	< 5 µg/mL		
CN(c1ccc([N+](=O)[O-])c(C(F)(F)F)c1)[C@H]1CC[C@H](OCC(=O)N2CCN(c3ccc4cc(C(F)(F)F)ccc4n3)CC2)CC1 [Compound 245, 2-[[(1r,4r)-4-[methyl[4-nitro-3-(trifluoromethyl)phenyl]amino]cyclohexyl]oxy]-1-[4-[6-(trifluoromethyl)quinolin-2-yl]piperazin-1-yl]ethan-1-one]	≥ 90%	≥ 90%	> 90%		< 1 µg/mL	
O=C(CO[C@H]1CC[C@H](Nc2ccc([N+](=O)[O-])c(C(F)(F)F)c2)CC1)N1CCN(Cc2cc3cc(C(F)(F)F)ccc3o2)CC1 [Compound 180, 2-[(4-[[4-nitro-3-(trifluoromethyl)phenyl]amino]cyclohexyl)oxy]-1-(4-[[5-(trifluoromethyl)-1-benzofuran-2-yl]methyl]piperazin-1-yl)ethan-1-one]	≥ 90%	≥ 90%	> 90%	< 1 µg/mL		
O=C(CO[C@H]1CC[C@H](Nc2ccc([N+](=O)[O-])c(C(F)(F)F)c2)CC1)N1CCN(Cc2ccc3cc(F)ccc3c2)CC1 [Compound 297, 2-[(4-[[4-nitro-3-(trifluoromethyl)phenyl]amino]cyclohexyl)-oxy]1-[4-(6-fluoronaphthalen-2-ylmethyl)piperazin-1-yl]ethan-1-one]	≥ 90%	≥ 90%		< 1 µg/mL		5.7 ×10⁻⁶ cm/s
O=C(CO[C@H]1CC[C@H](Nc2ccc([N+](=O)[O-])c(C(F)(F)F)c2)CC1)N1CCN(c2nc3cc(C(F)(F)F)ccc3s2)CC1 [Compound 342, 2-[4-(4-nitro-3-trifluoromethyl-phenylamino)-cyclohexyloxy]-1-[4-(5-trifluoromethyl-benzothiazol-2-yl)-piperazin-1-yl]-ethanone]	≥ 90%	≥ 90%	> 90%			
O=C(CO[C@H]1CC[C@H](Nc2ccc([N+](=O)[O-])c(C(F)(F)F)c2)CC1)N1CCN(Cc2cc3cc(F)ccc3s2)CC1 [Compound 234, 1-[4-[(5-fluoro-1-benzothiophen-2-yl)methyl]piperazin-1-yl]-2-[[4-[[4-nitro-3-(trifluorometh-yl)phenyl]amino]cyclohexyl]oxy]ethan-1-one]	≥ 90%	≥ 90%		< 0.1 µg/mL		4 ×10⁻⁶ cm/s
